Data published in US10457709B2, “Antimicrobial peptides, their variants and uses” (priority 2015, dated 2019).
Ends that are not written are not given here.

Key:
[1] = system: Escherichia coli (ATCC 25922); assay: microbe, parasite or virus in culture; type: cell-based; conditions: ATCC 25922
Procedure: (§1) Minimum inhibition concentrations (MICs) were determined against Escherichia coli (ATCC 25922), Staphylococcus aureus (ATCC 25923), Klebsiella pneumoniae (ATCC 10031) and Pseudomonas aeruginosa (ATCC 27853). Also clinical strains of E. coli, K. pneumoniae, E. cloacae, P. aeruginosa, Serratia marcescens, Proteus mirabilis, S. pneumoniae, Acinetobacter baumannii, A. johnsonii and S. aureus were used for MICs assays. Additionally, clinical strains of yeast including Candida albicans, C. glabrata, C. parapsilosis and C. quillermondiae were used. The susceptibility of these microorganisms to Chain peptides were determined using micro broth dilution assay. Colonies of the respective microorganism from Muller Hinton (MH) agar plates incubated overnight were suspended in MH broth media and final concentration of microorganism was adjusted to 5.0×10^5 cfu/ml. An aliquot of 10 μl of each Chain peptide, or gentamicin, tetracycline as reference antibiotics were added in differing concentrations along with 90 μl of bacterial suspension to 96 well polypropylene plates and incubated at 37° C. for 20 to 24 hours. Concentrations of Chain peptides and reference antibiotics ranged from 0.125 to 128 μg/ml and the MICs were recorded as the lowest concentration with no visual growth of bacteria. Similarly, antifungal MICs were tested in Potato dextrose broth.

[2] = system: Klebsiella pneumoniae (ATCC 10031); assay: microbe, parasite or virus in culture; type: cell-based; conditions: ATCC 10031
Procedure: as §1

[3] = system: Pseudomonas aeruginosa (ATCC 27853); assay: microbe, parasite or virus in culture; type: cell-based; conditions: ATCC 27853
Procedure: as §1

[4] = system: Staphylococcus aureus (ATCC 25923); assay: microbe, parasite or virus in culture; type: cell-based; conditions: ATCC 25923
Procedure: as §1

E. coli = conditions: ATCC 25922
Procedure: as §1

S. aureus [5] = conditions: ATCC 25923
Procedure: as §1

S. aureus [6] = assay: Antibacterial activity analysis of En-MAP1 protein; type: cell-based, Staphylococcus aureus
Procedure: Both folded and unfolded proteins were tested for antibacterial activity against S. aureus by pipetting 10 μg of protein on the S. aureus culture on an LB plate. The activity was also tested in folded and unfolded protein digested with trypsin in 0.01% acetic acid at concentrations of 30 and 60 μg/ml.
The gene En-MAP1 was then cloned into the expression plasmid pET23(b) to analyze whether the antibacterial activity was due to the protein itself. The resulting construct pET23(b)-FosS1A contained the En-MAP1 gene in-frame. When transformed into E. coli expression strain BL21 (DE3) pLyseS and BL21 (DE3) pRARE, a protein of approximately 63 kDa (predicted mass 63.3 kDa) was produced in the cell extracts of induced, but not in the uninduced cultures. The resulting protein includes the amino acid sequence […]- prior to the first amino acid of the protein sequence. The protein was expressed in both strains as inclusion bodies and they were purified and folded in a His-Trap column, resulting in about ˜1 mg of pure folded protein.

Row | Molecule | Minimum inhibitory concentration, Escherichia coli (ATCC 25922) [1] [µg/mL] | Minimum inhibitory concentration, Klebsiella pneumoniae (ATCC 10031) [2] [µg/mL] | Minimum inhibitory concentration, Pseudomonas aeruginosa (ATCC 27853) [3] [µg/mL] | Minimum inhibitory concentration, Staphylococcus aureus (ATCC 25923) [4] [µg/mL] | Minimal inhibitory concentration (MIC), E. coli (E. coli) [µM] | Minimal inhibitory concentration (MIC), S. aureus (S. aureus [5]) [µM] | Antibacterial activity against S. aureus (S. aureus [6]; expressed, folded protein) | Antibacterial activity against S. aureus after trypsin digestion (S. aureus [6]; folded full protein digested with trypsin, data not shown) | Antibacterial activity against S. aureus after trypsin digestion (S. aureus [6]; trypsin digest of the unfolded protein)
1 | NRIVQQRTSSR [Chain200] | >128 | >128 | >128 | >128 | 95 | 95 |  |  | 
2 | En-MAP1: protein of 549 amino acids from an endophyte of Empetrum nigrum, GenBank accession number KC466596 (protein, listed as Empetrum nigrum) MRLVAHPVPDAPLYALMIKACSMGIPQPNDNLWKPRNPLLAKEEKTSKRGRTAPDTERALDLFREMTLRYNIRPTAEVYTAIIAACVKRDDMYDKGFGLFKKMVELERNRMSSEGHDSTSFAPTRATYNALLRGCARNKDLLRARWILAEMLRTAQAKWQEFMEKSKKGEEGVQEWELLEVEEMRPDTNTMAFLFYTYASHTTSSKAVPETEGKKELEGKAEERASEVTSVSPVSEPPEPMDESKLVYSLPTSSQAILREVTSLLDRIKSDQGQQSNLLSSVQINSKLLNSYIAVLSAHCRSSQVVERISEVVVGTKENPKSLFEETGTSVNGYTCFTVIDACGMMEHSPDTYHLACEMWQRWLSLVENATFHRENPLKAKEIGLDSRTISDCWSAMIRLHAKYNQVDEAMKLVHEFARLYPPASLFNSLTFEPSSTSSSSLSPRKGVQEISPLFSSTSLTHSIRGRDISRIQNTMSQDPTLQFRAVQILHLRLVELETRPKDLAYLSWLLKSYEHQLQPKRPKSLQGDLFTSRQAAYNRIVQQRTSSR |  |  |  |  |  |  | no activity was observed | antibacterial activity was observed | No activity was detected
